Laboratory results published in patent publication US20260327191A1, “GSK3a INHIBITORS AND METHODS OF USE THEREOF” (Blueprint Medicines Corporation, priority 2023, published 2026).
Where a name gives a salt, the structure may show the parent alone.

Tests used:
human GSK3α = target: T1, human GSK3α (Homo sapiens, UniProt P49840); assay: In vitro enzymatic activity assay, GSK3α; format: biochemical; details: 1.0 mM ATP, 1.0 μM peptide substrate, 120 min, 25° C, read-out: Enzyme GSK3α (IC50)
T1 construct: Full length human GSK3α or GSK3B expressed as N-terminal GST fusion proteins; GST (N); purchased Carna Biosciences (Japan); host or cells: baculovirus host

GSK3A = target: T2, GSK3A (Homo sapiens, UniProt P49840); assay: NanoBRET cellular target engagement assay, Nanoluc-GSK3A in HEK293 cells; format: cell-based; details: NanoBRET GSK3α IC50, HEK293 cells, tracer K-8, 2 hours, 37° C
T2 construct: expressed in transfected cells

GSK3B [1] = target: T3, GSK3B (Homo sapiens, UniProt P49841); assay: NanoBRET cellular target engagement assay, Nanoluc-GSK3B in HEK293 cells; format: cell-based; parameters: expressed in transfected cells; details: NanoBRET GSK3β IC50, HEK293 cells, tracer K-8, 2 hours, 37° C
GSK3B [2] = target: T3, GSK3B; assay: In vitro enzymatic activity assay, GSK3β; format: biochemical; parameters: Full length human GSK3α or GSK3B expressed as N-terminal GST fusion proteins; GST (N); purchased Carna Biosciences (Japan); host or cells: baculovirus host; details: 1.0 mM ATP, 1.0 μM peptide substrate, 120 min, 25° C, read-out: Enzyme GSK3β (IC50)

T2 sequence (P49840 whole entry): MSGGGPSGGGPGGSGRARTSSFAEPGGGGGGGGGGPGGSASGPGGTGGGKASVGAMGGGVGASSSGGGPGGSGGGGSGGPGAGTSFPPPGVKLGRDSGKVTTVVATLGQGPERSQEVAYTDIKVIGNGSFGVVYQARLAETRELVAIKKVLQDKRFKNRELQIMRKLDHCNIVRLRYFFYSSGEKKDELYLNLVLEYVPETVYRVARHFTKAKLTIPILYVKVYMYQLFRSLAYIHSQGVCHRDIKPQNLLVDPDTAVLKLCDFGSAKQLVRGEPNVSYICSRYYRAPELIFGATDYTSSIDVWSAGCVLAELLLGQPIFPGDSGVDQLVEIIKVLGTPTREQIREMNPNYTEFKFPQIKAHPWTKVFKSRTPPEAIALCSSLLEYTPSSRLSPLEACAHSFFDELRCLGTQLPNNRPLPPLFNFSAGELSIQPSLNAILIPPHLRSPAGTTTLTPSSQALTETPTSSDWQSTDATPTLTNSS
T1 sequence (P49840 whole entry, the tested form may be a part): as the sequence (P49840 whole entry) above
T3 sequence (P49841 whole entry, the tested form may be a part): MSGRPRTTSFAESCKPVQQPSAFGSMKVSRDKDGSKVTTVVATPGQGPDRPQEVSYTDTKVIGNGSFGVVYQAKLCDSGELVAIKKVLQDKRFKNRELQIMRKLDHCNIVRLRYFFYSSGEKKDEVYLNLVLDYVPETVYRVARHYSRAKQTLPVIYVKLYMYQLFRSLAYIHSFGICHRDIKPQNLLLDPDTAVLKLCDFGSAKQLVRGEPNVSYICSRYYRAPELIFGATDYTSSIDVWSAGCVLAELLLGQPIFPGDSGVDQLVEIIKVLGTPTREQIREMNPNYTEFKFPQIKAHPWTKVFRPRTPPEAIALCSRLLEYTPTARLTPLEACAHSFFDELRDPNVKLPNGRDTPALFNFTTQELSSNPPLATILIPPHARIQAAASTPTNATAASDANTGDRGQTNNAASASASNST

Compound: COc1cc(Cl)c(-n2cnc(N)c(C(=O)Nc3cncc(C4CCCC(C)N4)c3)c2=O)c(Cl)c1 (single isomer, unassigned) [Example 83]
- IC50 (human GSK3α): 7 nM
- IC50 (GSK3A): 4.1 nM
- IC50 (GSK3B [1]): 336 nM
- IC50 (GSK3B [2]): 490 nM

Compound: Cc1cc(C(F)(F)F)cc(C)c1-n1cnc(N)c(C(=O)Nc2cncc(C3CCCCCN3)c2)c1=O (single isomer, unassigned) [Example 89, (R)-4-amino-N-(5-(azepan-2-yl)pyridin-3-yl)-1-(2,6-dimethyl-4-(trifluoromethyl)phenyl)-6-oxo-1,6-dihydropyrimidine-5-carboxamide or (S)-4-amino-N-(5-(azepan-2-yl)pyridin-3-yl)-1-(2,6-dimethyl-4-(trifluoromethyl)phenyl)-6-oxo-1,6-dihydropyrimidine-5-carboxamide]
- IC50 (human GSK3α): 10.2 nM
- IC50 (GSK3A): 6.4 nM
- IC50 (GSK3B [1]): 485 nM
- IC50 (GSK3B [2]): 669 nM

Compound: CCC(N)c1cncc(NC(=O)c2c(N)ncn(-c3c(Cl)cncc3Cl)c2=O)c1 (single isomer, unassigned) [Example 153, (R)-4-amino-N-(5-(1-aminopropyl)pyridin-3-yl)-1-(3,5-dichloropyridin-4-yl)-6-oxo-1,6-dihydropyrimidine-5-carboxamide or (S)-4-amino-N-(5-(1-aminopropyl)pyridin-3-yl)-1-(3,5-dichloropyridin-4-yl)-6-oxo-1,6-dihydropyrimidine-5-carboxamide]
- IC50 (human GSK3α): 7.8 nM
- IC50 (GSK3A): 6.4 nM
- IC50 (GSK3B [1]): 491 nM
- IC50 (GSK3B [2]): 346 nM

Compound: COc1cc(Cl)c(-n2cnc(N)c(C(=O)Nc3cc(F)cc([C@H]4CCCCN4)c3)c2=O)c(Cl)c1 (single isomer, unassigned) [Example 222, (R)-4-amino-1-(2,6-dichloro-4-methoxyphenyl)-N-(3-fluoro-5-(piperidin-2-yl)phenyl)-6-oxo-1,6-dihydropyrimidine-5-carboxamide or (S)-4-amino-1-(2,6-dichloro-4-methoxyphenyl)-N-(3-fluoro-5-(piperidin-2-yl)phenyl)-6-oxo-1,6-dihydropyrimidine-5-carboxamide]
- IC50 (human GSK3α): 2.1 nM
- IC50 (GSK3A): 4.6 nM
- IC50 (GSK3B [1]): 148 nM
- IC50 (GSK3B [2]): 99.2 nM

Compound: COc1cc(Cl)c(-n2cnc(N)c(C(=O)Nc3cncc([C@]4(N)CCCOC4)c3)c2=O)c(Cl)c1 (single isomer, unassigned) [Example 188, R)-4-amino-N-(5-(3-aminotetrahydro-2H-pyran-3-yl)pyridin-3-yl)-1-(2,6-dichloro-4-methoxyphenyl)-6-oxo-1,6-dihydropyrimidine-5-carboxamide or (S)-4-amino-N-(5-(3-aminotetrahydro-2H-pyran-3-yl)pyridin-3-yl)-1-(2,6-dichloro-4-methoxyphenyl)-6-oxo-1,6-dihydropyrimidine-5-carboxamide]
- IC50 (human GSK3α): 10.4 nM
- IC50 (GSK3A): 3.9 nM
- IC50 (GSK3B [1]): 345 nM
- IC50 (GSK3B [2]): 460 nM

Compound: CN[C@H](C)c1cccc(NC(=O)c2c(N)ncn(-c3c(C)cccc3Cl)c2=O)c1 (atropisomer, axis not shown) [Example 3, (R)-4-amino-1-((S)-2-chloro-6-methylphenyl)-N-(3-(1-(methylamino)ethyl)phenyl)-6-oxo-1,6-dihydropyrimidine-5-carboxamide]
- IC50 (human GSK3α): 6.6 nM
- IC50 (GSK3A): 5 nM
- IC50 (GSK3B [1]): 395 nM
- IC50 (GSK3B [2]): 344 nM

Compound: CCNCc1cncc(NC(=O)c2c(N)ncn(-c3c(Cl)cc(-c4cnco4)cc3Cl)c2=O)c1 [Example 200, 4-amino-1-(2,6-dichloro-4-(oxazol-5-yl)phenyl)-N-(5-((ethylamino)methyl)pyridin-3-yl)-6-oxo-1,6-dihydropyrimidine-5-carboxamide]
- IC50 (human GSK3α): 14.4 nM
- IC50 (GSK3A): 7.6 nM
- IC50 (GSK3B [1]): 451 nM
- IC50 (GSK3B [2]): 813 nM

Compound: CCOc1cc(C)c(-n2cnc(N)c(C(=O)Nc3cncc(C4CCC(C)N4)c3)c2=O)c(C)c1 (single isomer, unassigned) [Example 93]
- IC50 (human GSK3α): 31.7 nM
- IC50 (GSK3A): 9.3 nM
- IC50 (GSK3B [1]): 914 nM
- IC50 (GSK3B [2]): 1950 nM

Compound: COCc1cc(C)c(-n2cnc(N)c(C(=O)Nc3cncc(C4CCC(C)N4)c3)c2=O)c(C)c1 (single isomer, unassigned) [Example 101]
- IC50 (human GSK3α): 19.6 nM
- IC50 (GSK3A): 7.8 nM
- IC50 (GSK3B [1]): 800 nM
- IC50 (GSK3B [2]): 941 nM

Compound: COc1cc(Cl)c(-n2cnc(N)c(C(=O)Nc3cncc([C@]4(N)CCCOC4)c3)c2=O)c(Cl)c1 (single isomer, unassigned) [Example 187, (R)-4-amino-N-(5-(3-aminotetrahydro-2H-pyran-3-yl)pyridin-3-yl)-1-(2,6-dichloro-4-methoxyphenyl)-6-oxo-1,6-dihydropyrimidine-5-carboxamide or (S)-4-amino-N-(5-(3-aminotetrahydro-2H-pyran-3-yl)pyridin-3-yl)-1-(2,6-dichloro-4-methoxyphenyl)-6-oxo-1,6-dihydropyrimidine-5-carboxamide]
- IC50 (human GSK3α): 8.4 nM
- IC50 (GSK3A): 5.6 nM
- IC50 (GSK3B [1]): 421 nM
- IC50 (GSK3B [2]): 357 nM

Compound: COc1cc(Cl)c(-n2cnc(N)c(C(=O)Nc3cncc(C4CCC(C)N4)c3)c2=O)c(Cl)c1 (single isomer, unassigned) [Example 78]
- IC50 (human GSK3α): 11.4 nM
- IC50 (GSK3A): 7.7 nM
- IC50 (GSK3B [1]): 703 nM
- IC50 (GSK3B [2]): 958 nM

Compound: [2H]C([2H])([2H])NC(C)c1cncc(NC(=O)c2c(N)ncn(-c3c(C)cc(C(F)(F)F)cc3Cl)c2=O)c1 (single isomer, unassigned) [Example 16, (R)-4-amino-1-((S)-2-chloro-6-methyl-4-(trifluoromethyl)phenyl)-N-(5-(1-((methyl-d3)amino)ethyl)pyridin-3-yl)-6-oxo-1,6-dihydropyrimidine-5-carboxamide or (S)-4-amino-1-((S)-2-chloro-6-methyl-4-(trifluoromethyl)phenyl)-N-(5-(1-((methyl-d3)amino)ethyl)pyridin-3-yl)-6-oxo-1,6-dihydropyrimidine-5-carboxamide]
- IC50 (human GSK3α): 4.1 nM
- IC50 (GSK3A): 1.9 nM
- IC50 (GSK3B [1]): 132 nM
- IC50 (GSK3B [2]): 255 nM

Compound: CN[C@H](C)c1cc(F)cc(NC(=O)c2c(N)ncn(-c3c(Cl)cccc3Cl)c2=O)c1 [Example 6, (R)-4-amino-1-(2,6-dichlorophenyl)-N-(3-fluoro-5-(1-(methylamino)ethyl)phenyl)-6-oxo-1,6-dihydropyrimidine-5-carboxamide trifluoroacetate]
- IC50 (human GSK3α): 7.2 nM
- IC50 (GSK3A): 6.5 nM
- IC50 (GSK3B [1]): 352 nM
- IC50 (GSK3B [2]): 292 nM

Compound: CNC(C)c1cncc(NC(=O)c2c(N)ncn(-c3c(Cl)cc(Cl)cc3Cl)c2=O)c1 (single isomer, unassigned) [Example 12, (R)-4-amino-N-(5-(1-(methylamino)ethyl)pyridin-3-yl)-6-oxo-1-(2,4,6-trichlorophenyl)-1,6-dihydropyrimidine-5-carboxamide or (S)-4-amino-N-(5-(1-(methylamino)ethyl)pyridin-3-yl)-6-oxo-1-(2,4,6-trichlorophenyl)-1,6-dihydropyrimidine-5-carboxamide]
- IC50 (human GSK3α): 3.8 nM
- IC50 (GSK3A): 2.4 nM
- IC50 (GSK3B [1]): 141 nM
- IC50 (GSK3B [2]): 199 nM

Compound: COc1cc(Cl)c(-n2cnc(N)c(C(=O)Nc3cncc(C4(N)CCCC4)c3)c2=O)c(Cl)c1 [Example 21, 4-amino-N-(5-(1-aminocyclopentyl)pyridin-3-yl)-1-(2,6-dichloro-4-methoxyphenyl)-6-oxo-1,6-dihydropyrimidine-5-carboxamide]
- IC50 (human GSK3α): 3.2 nM
- IC50 (GSK3A): 2.6 nM
- IC50 (GSK3B [1]): 145 nM
- IC50 (GSK3B [2]): 217 nM

Compound: COCc1cc(Cl)c(-n2cnc(N)c(C(=O)Nc3cncc([C@@H]4CCCCN4)c3)c2=O)c(Cl)c1 [Example 61, (S)-4-amino-1-(2,6-dichloro-4-(methoxymethyl)phenyl)-6-oxo-N-(5-(piperidin-2-yl)pyridin-3-yl)-1,6-dihydropyrimidine-5-carboxamide]
- IC50 (human GSK3α): 6.4 nM
- IC50 (GSK3A): 3.7 nM
- IC50 (GSK3B [1]): 284 nM
- IC50 (GSK3B [2]): 466 nM

Compound: CCNCc1cncc(NC(=O)c2c(N)ncn(-c3c(C)cc(CC(F)F)cc3C)c2=O)c1 [Example 156, 4-amino-1-(4-(2,2-difluoroethyl)-2,6-dimethylphenyl)-N-(5-((ethylamino)methyl)pyridin-3-yl)-6-oxo-1,6-dihydropyrimidine-5-carboxamide]
- IC50 (human GSK3α): 34.9 nM
- IC50 (GSK3A): 8.1 nM
- IC50 (GSK3B [1]): 957 nM
- IC50 (GSK3B [2]): 1250 nM

Compound: [2H]C([2H])([2H])NC(C)c1cncc(NC(=O)c2c(N)ncn(-c3c(C)cc(OC)cc3Cl)c2=O)c1 (single isomer, unassigned) [Example 4, (R)-4-amino-1-((S)-2-chloro-4-methoxy-6-methylphenyl)-N-(5-(1-((methyl-d3)amino)ethyl)pyridin-3-yl)-6-oxo-1,6-dihydropyrimidine-5-carboxamide or (S)-4-amino-1-((S)-2-chloro-4-methoxy-6-methylphenyl)-N-(5-(1-((methyl-d3)amino)ethyl)pyridin-3-yl)-6-oxo-1,6-dihydropyrimidine-5-carboxamide]
- IC50 (human GSK3α): 3.7 nM
- IC50 (GSK3A): 1.4 nM
- IC50 (GSK3B [1]): 109 nM
- IC50 (GSK3B [2]): 187 nM

Compound: Nc1ncn(-c2c(Cl)cc(C(F)F)cc2Cl)c(=O)c1C(=O)Nc1cncc([C@@H]2CCCN2)c1 [Example 55, (S)-4-amino-1-(2,6-dichloro-4-(difluoromethyl)phenyl)-6-oxo-N-(5-(pyrrolidin-2-yl)pyridin-3-yl)-1,6-dihydropyrimidine-5-carboxamide]
- IC50 (human GSK3α): 9.1 nM
- IC50 (GSK3A): 6.5 nM
- IC50 (GSK3B [1]): 483 nM
- IC50 (GSK3B [2]): 430 nM
